# According to US20100152154A1, “NOVEL PLATINUM COMPOUNDS FOR TREATING CANCER” (priority 2008, published 2010):
# Experiments:
# Assay type in all cases: cell-based, human
# Caki-1 cells = experiment: In vitro IC50 by MTS assay, Caki-1 kidney cancer cells; settings: Caki-1, 48 hr incubation, MTS assay (490 nm)
# Procedure: (§1) To Determine the In Vitro IC50 Values on Ten Human Cancer Cell Lines
# (§2) HepG2 and PLC/PRF/5 cells are cultured in DMEM medium. Hep3B cells are cultured in MEM medium. NCI-H460 and 786-0 cells are cultured in RPMI 1640 medium. Caki-1, HCT-116, and SK-OV-3 cells are cultured in McCoy's 5A medium. MDA-MB-231 cells are cultured in L15 medium. All cells are cultured in corresponding media supplemented with 10% FBS, at 37° C., 5% CO2, and 95% humidity. All media are purchased from GIBCO.
# (§3) CellTiter 96® Aqueous MTS reagent powder (Cat. No. G1112, Promega) Phenazine methosulfate (PMS) (Cat. No. P9625, Sigma)
# (§4) Cells are harvested during the logarithmic growth period and counted with hemocytometer. Add 90 μl cell suspensions to 96-well plates (triplicates for each cell concentration), the final cell densities are 2×10^4, 1×10^4, or 5×10^3 cells/well. Prepare a series of drug concentrations for each of JP0916 and cisplatin and dispense 10 μl drug solution in each well (triplicate for each drug concentration). Incubate the plate for 48 hr then measure by MTS assay (490 nm).
# PC/PRF/5 cells = experiment: In vitro IC50 by MTS assay, PC/PRF/5 liver cancer cells; settings: PC/PRF/5, 48 hr incubation, MTS assay (490 nm)
# Procedure: as §1, §2, §3, §4
# SK-OV-3 cells = experiment: In vitro IC50 by MTS assay, SK-OV-3 ovarian cancer cells; settings: SK-OV-3, 48 hr incubation, MTS assay (490 nm)
# Procedure: as §1, §2, §3, §4
# 786-0 cells = experiment: In vitro IC50 by MTS assay, 786-0 kidney cancer cells; settings: 786-0, 48 hr incubation, MTS assay (490 nm)
# Procedure: as §1, §2, §3, §4
# HepG2 cells = experiment: In vitro IC50 by MTS assay, HepG2 liver cancer cells; settings: HepG2, 48 hr incubation, MTS assay (490 nm)
# Procedure: as §1, §2, §3, §4
# MDA-MB-231 cells = experiment: In vitro IC50 by MTS assay, MDA-MB-231 breast cancer cells; settings: MDA-MB-231, 48 hr incubation, MTS assay (490 nm)
# Procedure: as §1, §2, §3, §4
# NCI-H460 cells = experiment: In vitro IC50 by MTS assay, NCI-H460 NSCLC cells; settings: NCI-H460, 48 hr incubation, MTS assay (490 nm)
# Procedure: as §1, §2, §3, §4
# Hep3B cells = experiment: In vitro IC50 by MTS assay, Hep3B liver cancer cells; settings: 48 hr incubation, MTS assay (490 nm)
# Procedure: as §1, §2, §3, §4
# HCT-116 cells = experiment: In vitro IC50 by MTS assay, HCT-116 colon cancer cells; settings: HCT-116, 48 hr incubation, MTS assay (490 nm)
# Procedure: as §1, §2, §3, §4
substance,measurement,setting,value
cis-diamminedichloroplatinum(II) [Cisplatin],IC50,Caki-1 cells,10.5 µM
same,IC50,PC/PRF/5 cells,21.8 µM
same,IC50,SK-OV-3 cells,21.6 µM
same,IC50,786-0 cells,3.54 µM
same,IC50,HepG2 cells,25.6 µM
same,IC50,MDA-MB-231 cells,53.2 µM
same,IC50,NCI-H460 cells,8.56 µM
same,IC50,Hep3B cells,3.08 µM
same,IC50,HCT-116 cells,10.6 µM
